Tests used:
[1] = Hepatic and renal functional evaluation (serum); format: in vivo, mice; conditions: after 16 d
Excerpt: To investigate the efficacy of tumor inhibition, HCT116-cell-bearing 4-week-old female Balb-c/nude mice whose tumor sizes were up to 500 mm^3 were separated into 3 groups and each group contained 5 mice. […] The tumor size and weight were monitored every 2 to 3 days for 16-days post-injection. At day 16 post-injection, the mice were all euthanized, and their blood was collected. Meanwhile, the tumor and liver of mice were collected. The tumors were photographed after excluding the extreme ones. The blood samples were centrifugated under 3000 RPM for 10 min to obtain the serum samples for hepatic and renal functional evaluations. The hepatic function was assessed by the aspartate aminotransferase (AST) and alanine aminotransferase (ALT) values; the function of the kidneys was evaluated with the index of blood urea nitrogen (BUN) and creatinine.

[2] = test system: HCT116-cell-bearing Balb-c/nude mice; experiment: Histopathological analysis (H&E) of tumors and organs; format: in vivo; conditions: Day 16; control: livers, lungs, and spleens
Method: The tumors and livers harvested from mice were preserved in 4% formalin overnight and the tumor and livers were embedded in paraffin to form paraffin tissue blocks. Afterwards, the tissues were sliced into 5-μm thick sections using a microtome (Leica RM 2145, Leica, Wetzlar, Germany). These sections were stained with H & E. The histopathological analysis was performed using an optical microscope (Optiphot-2, Nikon, Tokyo, Japan).

NC1CCCCC1N.[Cl][Pt][Cl] (centres unmarked) [DACHPt, dichloro(1,2-diaminocyclohexane)platinum(II)]
hepatic functional index ALT [1]: 40 ± 3 U/L
hepatic functional index AST [1]: 134 ± 29 U/L
renal functional index BUN [1]: 32.9 ± 9.3 mg/dL
renal functional index Creatinine [1]: 0.44 ± 0.05 mg/dL
tumor metastasis in organs (H&E sections) [2]: only observed in lungs

From patent US12642865B2, “Toroidal mixed nanoparticle, method for preparing the same, and method for multifunctional delivery using the same” (China Medical University, priority 2022, dated 2026)
